ChEMBL document CHEMBL1201862, “PubChem BioAssay data set” (2004)
Calls of active or inactive are those of the source.

How the values were obtained:
INS1 = assay: INS-1E survival protection against cytokine death – cell-based, luminescence, retest, dose response (AID 449756); assay type: functional; details: Rattus norvegicus;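 note: cell death triggered by IL-1 beta plus TNF-alpha plus IFN-gamma mixture; protective hits raise ATP signal compared with cytokine alone wells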
[1] = fluconazole-exposed Candida albicans growth modulators – fluorescence, retest, confirmation (AID 2467); assay type: functional, cell-based
[2] = Vero E6 cell cytotoxicity, dose response, cytotoxicity control for non-replicating M. tuberculosis project, secondary assay (AID 492998); assay type: functional, VeroE6; details: Vero C1008
[3] = HepG2 cell cytotoxicity, dose response, cytotoxicity control for non-replicating M. tuberculosis project (AID 489018); assay type: functional; details: Mycobacterium tuberculosis
[4] = THP-1 cell cytotoxicity, dose response, cytotoxicity control for non-replicating M. tuberculosis project (AID 489025); assay type: functional
[5] = biological target: ATP-dependent molecular chaperone HSP82 (Candida albicans (strain WO-1) (Yeast), UniProt C4YTQ8); assay: steroid-induced GRE reporter decrease in yeast – S. cerevisiae, luminescence, Hsp90 inhibitor project, dose response (AID 2400); assay type: functional, cell-based;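 note: beta-galactosidase luminescence from glucocorticoid response element reporter as proxy for Hsp90 function; inhibitor potency where signal loss means Hsp90 inhibition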
Chain of ATP-dependent molecular chaperone HSP82 (C4YTQ8 whole entry): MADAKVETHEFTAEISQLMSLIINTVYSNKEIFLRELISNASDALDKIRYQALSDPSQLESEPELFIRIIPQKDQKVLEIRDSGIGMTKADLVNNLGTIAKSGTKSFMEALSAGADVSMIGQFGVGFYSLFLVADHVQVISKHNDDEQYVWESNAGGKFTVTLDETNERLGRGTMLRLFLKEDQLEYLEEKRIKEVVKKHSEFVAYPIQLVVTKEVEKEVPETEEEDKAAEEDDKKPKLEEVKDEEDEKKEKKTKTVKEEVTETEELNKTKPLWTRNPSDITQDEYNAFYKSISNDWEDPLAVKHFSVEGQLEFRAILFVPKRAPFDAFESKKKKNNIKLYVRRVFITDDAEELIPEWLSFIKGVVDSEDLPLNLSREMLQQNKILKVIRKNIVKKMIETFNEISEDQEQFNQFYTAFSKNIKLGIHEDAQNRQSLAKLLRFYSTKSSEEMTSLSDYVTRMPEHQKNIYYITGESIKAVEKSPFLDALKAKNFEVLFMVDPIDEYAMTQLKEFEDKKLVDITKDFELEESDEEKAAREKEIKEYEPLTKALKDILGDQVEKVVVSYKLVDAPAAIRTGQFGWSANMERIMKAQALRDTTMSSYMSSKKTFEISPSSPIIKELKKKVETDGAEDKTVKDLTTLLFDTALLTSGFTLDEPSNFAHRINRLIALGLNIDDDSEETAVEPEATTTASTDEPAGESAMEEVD

cells [6] = assay type: functional, cell-based
cells [7] = assay type: functional, cell-based; remark: listed apart in the source
[8] = NIH-3T3 fibroblast cytotoxicity, dose response, cytotoxicity control, cell-based, fluorescence, Alamar Blue, secondary assay (AID 2327); assay type: functional;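 note: NIH-3T3 mouse fibroblasts cultured with fluconazole at 8 µg/mL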
[9] = biological target: T1, Serine/threonine-protein phosphatase (Candida dubliniensis (strain CD36 / CBS 7987 / NCPF 3949 / NRRLY-17841) (Yeast), UniProt B9W6M3); assay: blockers of CaCl2-induced CDRE-lacZ signaling – S. cerevisiae, luminescence, secondary, dose response (AID 2388); assay type: functional, cell-based;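 note: yeast reporter cells carrying a calcineurin-responsive lacZ construct stimulated with calcium chloride; luminescent beta-galactosidase reporter signal in whole cells rather than isolated phosphatase activity; potency for inhibition where a drop in reporter signal means calcineurin blockade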
T1 sequence (B9W6M3 whole entry): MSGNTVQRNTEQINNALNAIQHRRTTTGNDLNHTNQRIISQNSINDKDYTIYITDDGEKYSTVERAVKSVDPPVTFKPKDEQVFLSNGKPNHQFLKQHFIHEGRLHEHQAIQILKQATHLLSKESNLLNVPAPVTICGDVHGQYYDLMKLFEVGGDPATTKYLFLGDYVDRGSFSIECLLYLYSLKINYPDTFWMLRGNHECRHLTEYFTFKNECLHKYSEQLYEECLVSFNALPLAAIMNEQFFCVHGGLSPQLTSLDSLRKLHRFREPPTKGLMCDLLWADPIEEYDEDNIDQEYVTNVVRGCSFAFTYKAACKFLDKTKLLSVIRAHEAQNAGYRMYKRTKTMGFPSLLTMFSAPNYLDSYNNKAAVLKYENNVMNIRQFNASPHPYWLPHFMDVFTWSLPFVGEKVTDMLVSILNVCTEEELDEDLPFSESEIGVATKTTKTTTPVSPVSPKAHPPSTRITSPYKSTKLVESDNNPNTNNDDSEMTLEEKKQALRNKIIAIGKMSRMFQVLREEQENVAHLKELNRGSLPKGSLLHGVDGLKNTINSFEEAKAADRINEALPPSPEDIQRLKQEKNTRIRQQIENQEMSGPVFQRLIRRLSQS

[10] = biological target: DNA damage-inducible transcript 3 protein (Mus musculus, UniProt P35639); assay type: functional, Cricetulus griseus
Chain of DNA damage-inducible transcript 3 protein (P35639 whole entry): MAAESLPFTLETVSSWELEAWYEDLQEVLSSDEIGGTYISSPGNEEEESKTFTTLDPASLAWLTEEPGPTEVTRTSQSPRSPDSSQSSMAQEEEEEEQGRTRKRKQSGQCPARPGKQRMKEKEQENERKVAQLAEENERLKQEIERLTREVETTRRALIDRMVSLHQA

Melanocortin receptor 4 = Melanocortin receptor 4 (Homo sapiens, UniProt P32245); assay type: functional, cell-based;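 note: Cell-based assay with luminescence read-out, confirmatory dose-response testing for agonist activity of biased ligands at MC4R; human U2OS cells with tagged receptor and beta-arrestin; potency of agonists that increase receptor coupling to beta-arrestin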
Chain of Melanocortin receptor 4 (P32245 whole entry): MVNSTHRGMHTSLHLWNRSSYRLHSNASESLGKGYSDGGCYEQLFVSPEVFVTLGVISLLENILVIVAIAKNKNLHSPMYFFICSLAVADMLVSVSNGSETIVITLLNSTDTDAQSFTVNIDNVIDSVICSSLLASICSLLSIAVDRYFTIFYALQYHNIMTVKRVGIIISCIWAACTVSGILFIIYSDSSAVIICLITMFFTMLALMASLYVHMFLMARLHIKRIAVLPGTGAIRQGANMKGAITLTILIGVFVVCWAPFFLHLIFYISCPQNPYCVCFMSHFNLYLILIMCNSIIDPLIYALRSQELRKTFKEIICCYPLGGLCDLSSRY

cells [11] = assay: cells
[12] = DRD fibroblast viability loss – cell-based, non-viral oncogenic, luminescence, dose response (AID 1934); assay type: functional; details: Homo sapiens
[13] = viability of uninfected HEp-2 cells – cell-based, HTS, cytotoxicity control for RSV inhibitor project, dose response (AID 2410); assay type: functional; details: human respiratory syncytial virus
[14] = NIH3T3 cell viability loss – ATP luminescence, mouse fibroblasts, counter-screen, dose response (AID 2010); assay type: functional, cell-based;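 note: cells exposed to compound for about 90 hours before reading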
[15] = biological target: T2, Type-1 angiotensin II receptor (Homo sapiens, UniProt P30556); assay: agonist activity at AGTR1 – cell-based, uHTS hits, selectivity assay for APJ receptor agonist project, dose response (AID 488865); assay type: functional;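 note: beta-arrestin recruitment to AT1 measured by enzyme fragment complementation luminescence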
T2 sequence (P30556 whole entry): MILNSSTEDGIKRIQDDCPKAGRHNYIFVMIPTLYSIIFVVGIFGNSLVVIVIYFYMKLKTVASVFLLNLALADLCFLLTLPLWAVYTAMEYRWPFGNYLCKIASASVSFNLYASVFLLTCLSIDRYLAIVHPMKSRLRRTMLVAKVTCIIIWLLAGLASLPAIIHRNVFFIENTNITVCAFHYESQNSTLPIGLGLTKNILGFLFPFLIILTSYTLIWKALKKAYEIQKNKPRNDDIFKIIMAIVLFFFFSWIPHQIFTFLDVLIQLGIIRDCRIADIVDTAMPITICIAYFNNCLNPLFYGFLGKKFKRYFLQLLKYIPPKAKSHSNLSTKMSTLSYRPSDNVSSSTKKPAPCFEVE

[16] = Trypanosoma cruzi growth suppression in host cells – NIH3T3 host cells, beta-gal luminescence, confirmation (AID 2044); assay type: functional, cell-based;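 note: intracellular parasites grown in NIH/3T3 mouse fibroblasts as host cells; luminescent beta-galactosidase reporter signal from transgenic T. cruzi replicating inside host cells; inhibitors lower the luminescence signal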
BJ [17] = assay: BJ-TERT fibroblast viability loss – cell-based, RAS-independent, luminescence, dose response (AID 1933); assay type: functional; details: Homo sapiens
BJ [18] = assay: BJ-TERT-LT-ST fibroblast viability loss – cell-based, RAS-independent, luminescence, dose response (AID 1935); assay type: functional; details: Homo sapiens;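 note: BJ fibroblasts immortalized with TERT plus LT and ST oncogenes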
BJ [19] = assay: cells; assay type: functional, cell-based; details: Homo sapiens
Coagulation factor XII = biological target: T3, Coagulation factor XII (Homo sapiens, UniProt P00748); assay type: functional;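 note: activated factor XIIa alpha cleaving a fluorogenic AMC peptide substrate; inhibitor potency from loss of enzyme activity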
T3 sequence (P00748 whole entry): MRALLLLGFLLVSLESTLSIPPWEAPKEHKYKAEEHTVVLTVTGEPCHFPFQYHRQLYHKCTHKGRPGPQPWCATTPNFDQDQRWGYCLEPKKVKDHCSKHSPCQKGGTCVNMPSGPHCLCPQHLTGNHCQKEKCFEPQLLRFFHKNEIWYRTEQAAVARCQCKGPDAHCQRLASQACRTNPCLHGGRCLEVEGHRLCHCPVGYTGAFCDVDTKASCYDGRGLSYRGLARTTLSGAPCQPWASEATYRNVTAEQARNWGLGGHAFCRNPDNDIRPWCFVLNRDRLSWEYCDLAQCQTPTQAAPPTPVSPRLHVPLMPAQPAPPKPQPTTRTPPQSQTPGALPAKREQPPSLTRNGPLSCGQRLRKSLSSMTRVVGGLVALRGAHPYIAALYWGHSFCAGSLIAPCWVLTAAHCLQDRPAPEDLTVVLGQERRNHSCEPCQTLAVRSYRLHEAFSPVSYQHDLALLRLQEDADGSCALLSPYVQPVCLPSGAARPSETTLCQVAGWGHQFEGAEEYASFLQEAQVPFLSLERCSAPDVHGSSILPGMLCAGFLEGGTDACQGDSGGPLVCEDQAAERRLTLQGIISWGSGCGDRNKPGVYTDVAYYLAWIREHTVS

[20] = Luminescence Cell-Based Dose Retest to Confirm Inhibitors of Cancer Stem Cells. [Related pubchem assays (depositor defined):AID2717, AID2721]; assay type: functional; details: Homo sapiens
[21] = biological target: T4, Heat shock factor protein 1 (Mus musculus, UniProt P38532); assay: enhancement of HSF1-driven luciferase signal – cell-based, NIH3T3, luminescence, dose retest, confirmation (AID 435004); assay type: functional;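 note: stress induced by proteasome inhibitor MG132 added 30 min after compound; luciferase reporter driven by HSF1 response element in NIH3T3 cells; actives raise luminescence as potentiators of the MG132 stress response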
T4 sequence (P38532 whole entry): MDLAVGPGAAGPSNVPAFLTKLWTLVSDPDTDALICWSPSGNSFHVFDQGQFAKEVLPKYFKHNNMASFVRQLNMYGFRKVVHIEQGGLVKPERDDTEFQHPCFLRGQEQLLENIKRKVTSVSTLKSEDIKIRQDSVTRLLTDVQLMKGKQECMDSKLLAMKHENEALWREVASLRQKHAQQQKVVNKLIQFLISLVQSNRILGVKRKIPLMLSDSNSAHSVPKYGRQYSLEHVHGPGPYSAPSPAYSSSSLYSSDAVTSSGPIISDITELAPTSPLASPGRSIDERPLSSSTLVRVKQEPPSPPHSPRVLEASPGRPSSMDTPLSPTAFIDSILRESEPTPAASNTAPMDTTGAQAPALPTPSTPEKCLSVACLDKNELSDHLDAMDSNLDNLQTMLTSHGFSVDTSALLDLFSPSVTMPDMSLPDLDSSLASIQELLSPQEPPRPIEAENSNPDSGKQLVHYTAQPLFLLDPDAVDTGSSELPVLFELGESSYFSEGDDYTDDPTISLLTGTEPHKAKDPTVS

HEK293 = assay: EBV LMP1 TES2 canonical NF-kB signalling blockers – cell-based, HEK293, luciferase, cherry-pick, dose response (AID 588343); assay type: functional; details: Homo sapiens
[22] = biological target: Heat shock protein HSP 90-alpha (Homo sapiens, UniProt P07900); assay type: functional, organism-based
Hexokinase-1 = Hexokinase-1 (Homo sapiens, UniProt P19367); assay: HK1 enzyme activation by HKDC1 hits – biochemical, selectivity assay for HKDC1 activator project, dose response (AID 504762); assay type: functional
Chain of Hexokinase-1 (P19367 whole entry): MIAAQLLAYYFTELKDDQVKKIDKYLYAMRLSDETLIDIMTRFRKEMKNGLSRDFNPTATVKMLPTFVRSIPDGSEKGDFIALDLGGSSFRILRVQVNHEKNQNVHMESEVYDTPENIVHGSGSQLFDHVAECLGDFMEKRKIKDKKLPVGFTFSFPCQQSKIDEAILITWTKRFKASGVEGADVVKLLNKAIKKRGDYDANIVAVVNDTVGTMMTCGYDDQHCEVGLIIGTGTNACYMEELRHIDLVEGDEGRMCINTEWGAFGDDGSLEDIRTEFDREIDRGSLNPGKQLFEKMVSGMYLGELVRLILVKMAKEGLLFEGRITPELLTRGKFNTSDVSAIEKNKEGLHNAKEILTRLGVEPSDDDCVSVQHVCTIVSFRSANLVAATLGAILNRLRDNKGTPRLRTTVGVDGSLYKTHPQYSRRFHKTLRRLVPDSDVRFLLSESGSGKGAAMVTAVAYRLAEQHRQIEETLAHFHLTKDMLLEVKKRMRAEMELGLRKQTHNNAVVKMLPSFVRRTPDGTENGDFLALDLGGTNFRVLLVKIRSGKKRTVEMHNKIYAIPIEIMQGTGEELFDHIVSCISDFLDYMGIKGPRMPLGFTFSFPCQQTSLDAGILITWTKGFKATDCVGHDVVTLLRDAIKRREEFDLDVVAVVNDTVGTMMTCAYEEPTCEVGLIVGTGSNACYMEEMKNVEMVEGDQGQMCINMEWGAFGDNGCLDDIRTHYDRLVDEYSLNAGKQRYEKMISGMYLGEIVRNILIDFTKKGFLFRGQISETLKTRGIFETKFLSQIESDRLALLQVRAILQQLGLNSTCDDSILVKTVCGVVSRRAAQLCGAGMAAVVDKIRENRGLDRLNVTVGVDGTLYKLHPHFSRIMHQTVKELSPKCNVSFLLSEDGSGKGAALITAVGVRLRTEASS

Nonstructural protein 1 = Nonstructural protein 1 (Influenza A virus, UniProt Q194T2); assay type: functional, Influenza A virus (A/California/07/2009(H1N1))
Chain of Nonstructural protein 1 (Q194T2 whole entry): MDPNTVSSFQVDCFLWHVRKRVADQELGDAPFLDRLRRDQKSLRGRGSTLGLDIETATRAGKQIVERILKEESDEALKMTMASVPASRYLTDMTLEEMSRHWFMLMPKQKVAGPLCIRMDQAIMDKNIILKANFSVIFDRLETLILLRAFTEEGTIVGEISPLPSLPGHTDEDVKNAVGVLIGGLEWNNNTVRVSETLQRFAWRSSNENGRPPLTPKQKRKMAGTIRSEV

Hexokinase HKDC1 = biological target: T5, Hexokinase HKDC1 (Homo sapiens, UniProt Q2TB90); assay: activation of HKDC1 glucose phosphorylation – biochemical, W721R variant, dose response (AID 504730); assay type: functional
T5 sequence (Q2TB90 whole entry): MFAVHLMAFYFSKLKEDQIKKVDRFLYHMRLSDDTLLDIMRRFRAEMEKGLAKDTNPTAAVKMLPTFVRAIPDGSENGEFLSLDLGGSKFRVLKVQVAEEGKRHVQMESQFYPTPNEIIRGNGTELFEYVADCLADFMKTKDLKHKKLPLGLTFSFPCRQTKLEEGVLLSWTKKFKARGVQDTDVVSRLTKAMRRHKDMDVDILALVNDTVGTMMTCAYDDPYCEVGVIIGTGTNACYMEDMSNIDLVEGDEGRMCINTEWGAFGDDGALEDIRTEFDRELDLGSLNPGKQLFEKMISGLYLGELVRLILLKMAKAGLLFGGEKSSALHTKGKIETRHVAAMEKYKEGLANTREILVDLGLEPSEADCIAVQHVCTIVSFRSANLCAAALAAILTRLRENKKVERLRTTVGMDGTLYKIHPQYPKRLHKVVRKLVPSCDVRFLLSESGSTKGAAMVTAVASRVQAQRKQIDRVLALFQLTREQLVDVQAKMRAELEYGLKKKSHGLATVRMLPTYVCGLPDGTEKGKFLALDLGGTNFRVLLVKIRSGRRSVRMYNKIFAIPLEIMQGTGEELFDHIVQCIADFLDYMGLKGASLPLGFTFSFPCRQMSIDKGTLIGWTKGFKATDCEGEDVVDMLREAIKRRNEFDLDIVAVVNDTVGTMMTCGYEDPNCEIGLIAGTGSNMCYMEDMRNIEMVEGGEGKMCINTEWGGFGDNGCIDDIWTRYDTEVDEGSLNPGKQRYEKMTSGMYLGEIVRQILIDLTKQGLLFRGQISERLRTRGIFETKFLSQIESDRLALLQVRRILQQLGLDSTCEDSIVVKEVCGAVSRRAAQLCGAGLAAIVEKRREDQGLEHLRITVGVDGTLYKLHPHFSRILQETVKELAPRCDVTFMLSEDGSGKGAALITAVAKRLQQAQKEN

[23] = microbe, parasite or virus in culture; assay type: functional; details: Mycobacterium tuberculosis
cells [24] = assay type: functional

O=C(N/N=C/c1ccccc1O)c1cccc(C(F)(F)F)c1
AC50 (INS1): 1.11 µM (active) | EC50 [1]: 1.39 µM (active) | CC50 [2]: 3.65 µM (active) | CC50 [3]: 6.7 µM (active) | CC50 [4]: 0.106 µM (active) | EC50 [5]: > 150 µM (inactive) | EC50 (cells [6]): > 350 µM (not active) | EC50 (cells [7]): 7.53 µM (active) | EC50 [8]: > 150 µM (inactive) | EC50 [9]: > 180 µM (inactive)

CCC(CC)c1nnc(NC(=O)c2c(C)nn(Cc3ccccc3Cl)c2C)s1
Absolute IC50 (CHOP) [10]: < 10 µM

CN(C)CCCN(C(=O)c1cc2cc([N+](=O)[O-])ccc2s1)c1nc2cc3c(cc2s1)OCCO3
EC50 (Melanocortin receptor 4): > 89.2 µM (inactive) | EC50 (cells [11]): 0.148 µM (active) | EC50 [12]: 2.96 µM (inconclusive) | CC50 [13]: 24.5 µM (active) | EC50 [14]: 6.94 µM (active) | EC50 [15]: > 100 µM (inactive) | EC50 [16]: < 0.1 µM (active) | EC50 (BJ [17]): 1.65 µM (active) | EC50 (BJ [18]): 2.89 µM (inconclusive) | EC50 (BJ [19]): 7.44 µM (active)

O=C1CC(N2CCN(Cc3ccc(Cl)cc3)CC2)C(=O)N1CCc1ccccc1 (configuration not stated)
IC50 (Coagulation factor XII): > 50 µM (inactive)

COc1ccc(C)cc1NC(=O)CSc1nnc(COc2ccc(Cl)cc2)n1Cc1ccco1
AC50 [20]: 5.42 µM (active) | IC50 (Coagulation factor XII): > 50 µM (inactive) | EC50 [21]: 259 µM (active)

C=CCn1c(CCNC(=O)c2ccc(Cl)c(Cl)c2)nnc1SCCOc1ccc(OC)cc1
Absolute IC50 (CHOP) [10]: 10 µM | EC50 [21]: 16.8 µM (active)

CC(=NNC(=S)Nc1cccc(Cl)c1)c1ccccn1
AC50 (HEK293): 0.341 µM (active) | AC50 [22]: 16.2 µM (active) | EC50 (Hexokinase-1): > 80 µM (inactive) | IC50 (Nonstructural protein 1): 15.4 µM (active) | EC50 (Hexokinase HKDC1): 0.615 µM (active)

S=C1SCN(Cc2ccco2)CN1Cc1ccco1
AC50 (HEK293): 0.574 µM (active) | CC50 [23]: 16.8 µM (active) | CC50 [2]: 18.4 µM (active) | IC50 (cells [24]): 22.4 µM (active) | CC50 [4]: 8.73 µM (active)
